The values below come from patent US12667619B2, “Integrin targeting ligands and uses thereof” (Arrowhead Pharmaceuticals, Inc., priority 2018, dated 2026).

In assay [1] the target is αvβ5 integrin (Homo sapiens, UniProt P06756+P18084). The assay can be described thus: IC50 binding activity, αvβ5 integrin. To be noted: read-out: IC50 ανβ5. From the text: (§1) As reported in the following Table 1, IC50 binding data was obtained for the integrin targeting ligands of Structures 1c, 2c, and 3c, as w ell as an RGD-mimetic peptide:
(§2) Moreover, while the RGD-mimetic ligand is shown to have binding activity, the integrin targeting ligands of the present disclosure have increased stability, both with respect to serum stability in vim and chemical stability ex vim, compared to such peptide-based RGD-mimetic ligands.

In assay [2] the target is αvβ3 integrin (Homo sapiens, UniProt P05106+P06756). The assay can be described thus: IC50 binding activity, αvβ3 integrin. To be noted: read-out: IC50 ανβ3.
From the text: as §1, §2

Assay [3] has as its target ανβ6 (Homo sapiens, UniProt P06756+P18564). The assay can be described thus: IC50 binding activity, αvβ6 integrin. From the text: As reported in the following Table 1, IC50 binding data was obtained for the integrin targeting ligands of Structures 1c, 2c, and 3c, as w ell as an RGD-mimetic peptide: […]

Sequence of αvβ5 integrin (P06756 31-1048): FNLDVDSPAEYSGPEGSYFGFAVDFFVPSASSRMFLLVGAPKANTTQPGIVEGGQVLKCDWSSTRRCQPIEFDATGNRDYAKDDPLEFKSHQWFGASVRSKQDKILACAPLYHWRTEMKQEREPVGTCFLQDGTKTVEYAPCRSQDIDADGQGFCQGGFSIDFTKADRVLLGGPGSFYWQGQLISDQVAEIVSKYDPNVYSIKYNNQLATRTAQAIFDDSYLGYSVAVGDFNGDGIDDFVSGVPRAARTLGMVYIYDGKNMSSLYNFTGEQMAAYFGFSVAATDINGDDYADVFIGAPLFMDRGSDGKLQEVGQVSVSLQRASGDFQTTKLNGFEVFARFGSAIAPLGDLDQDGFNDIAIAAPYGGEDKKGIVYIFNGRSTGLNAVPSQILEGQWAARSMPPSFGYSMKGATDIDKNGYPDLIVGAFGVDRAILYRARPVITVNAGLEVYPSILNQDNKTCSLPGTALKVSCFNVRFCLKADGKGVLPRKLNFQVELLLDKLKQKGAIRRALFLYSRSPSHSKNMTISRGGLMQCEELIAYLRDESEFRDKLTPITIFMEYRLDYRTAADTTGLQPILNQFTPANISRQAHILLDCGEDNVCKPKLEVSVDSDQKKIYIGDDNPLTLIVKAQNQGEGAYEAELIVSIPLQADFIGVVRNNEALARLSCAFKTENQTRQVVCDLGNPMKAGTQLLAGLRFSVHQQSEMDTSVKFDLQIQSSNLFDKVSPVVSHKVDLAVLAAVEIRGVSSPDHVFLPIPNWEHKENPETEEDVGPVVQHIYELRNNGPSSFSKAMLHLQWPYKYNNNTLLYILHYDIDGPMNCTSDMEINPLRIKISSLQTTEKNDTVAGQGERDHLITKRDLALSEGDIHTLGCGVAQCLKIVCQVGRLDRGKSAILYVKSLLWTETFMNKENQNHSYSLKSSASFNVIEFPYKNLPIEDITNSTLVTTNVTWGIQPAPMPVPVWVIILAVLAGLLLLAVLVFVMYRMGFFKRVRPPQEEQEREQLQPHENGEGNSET
Sequence of αvβ5 integrin (P18084 24-799): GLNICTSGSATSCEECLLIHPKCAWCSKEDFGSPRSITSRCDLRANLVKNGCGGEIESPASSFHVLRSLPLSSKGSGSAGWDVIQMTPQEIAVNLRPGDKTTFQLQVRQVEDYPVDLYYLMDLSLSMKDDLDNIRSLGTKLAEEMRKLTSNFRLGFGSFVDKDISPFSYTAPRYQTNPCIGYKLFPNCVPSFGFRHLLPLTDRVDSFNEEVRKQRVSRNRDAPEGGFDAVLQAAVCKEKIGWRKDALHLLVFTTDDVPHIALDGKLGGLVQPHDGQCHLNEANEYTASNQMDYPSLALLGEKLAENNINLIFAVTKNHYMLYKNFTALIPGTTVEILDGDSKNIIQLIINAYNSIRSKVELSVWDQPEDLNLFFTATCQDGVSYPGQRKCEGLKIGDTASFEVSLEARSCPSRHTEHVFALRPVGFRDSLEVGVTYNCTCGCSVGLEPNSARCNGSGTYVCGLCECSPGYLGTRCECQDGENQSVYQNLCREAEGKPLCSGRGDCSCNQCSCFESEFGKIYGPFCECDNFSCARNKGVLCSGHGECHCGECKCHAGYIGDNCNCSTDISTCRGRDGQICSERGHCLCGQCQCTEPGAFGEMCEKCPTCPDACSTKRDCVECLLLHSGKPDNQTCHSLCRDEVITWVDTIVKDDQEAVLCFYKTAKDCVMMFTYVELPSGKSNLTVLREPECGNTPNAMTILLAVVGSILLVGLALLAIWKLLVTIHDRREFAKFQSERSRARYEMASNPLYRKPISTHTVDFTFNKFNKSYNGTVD
Sequence of ανβ6 (P06756 31-1048): as the sequence (P06756 31-1048) above
Sequence of ανβ6 (P18564 22-788): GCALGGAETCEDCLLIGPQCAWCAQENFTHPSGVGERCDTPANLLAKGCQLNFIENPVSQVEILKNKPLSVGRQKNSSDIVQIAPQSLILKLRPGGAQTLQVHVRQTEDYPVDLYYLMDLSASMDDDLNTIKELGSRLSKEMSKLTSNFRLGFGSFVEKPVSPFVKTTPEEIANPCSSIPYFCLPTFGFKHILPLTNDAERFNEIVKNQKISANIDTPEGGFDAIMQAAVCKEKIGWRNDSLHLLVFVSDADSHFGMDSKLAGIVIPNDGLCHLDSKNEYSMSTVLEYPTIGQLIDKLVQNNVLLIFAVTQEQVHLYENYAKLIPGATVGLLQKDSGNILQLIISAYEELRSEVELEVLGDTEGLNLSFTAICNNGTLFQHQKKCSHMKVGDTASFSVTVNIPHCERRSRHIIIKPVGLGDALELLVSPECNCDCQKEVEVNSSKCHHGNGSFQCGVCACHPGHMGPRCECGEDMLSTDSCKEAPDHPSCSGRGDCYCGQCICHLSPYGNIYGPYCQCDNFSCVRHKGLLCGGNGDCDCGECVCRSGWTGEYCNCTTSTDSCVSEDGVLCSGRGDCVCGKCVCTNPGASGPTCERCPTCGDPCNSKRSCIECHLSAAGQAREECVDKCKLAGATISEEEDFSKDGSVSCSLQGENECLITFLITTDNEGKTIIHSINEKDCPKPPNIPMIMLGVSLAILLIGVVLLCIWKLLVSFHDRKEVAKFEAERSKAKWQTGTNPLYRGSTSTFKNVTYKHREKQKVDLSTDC
Sequence of αvβ3 integrin (P06756 31-1048): as the sequence (P06756 31-1048) above
Sequence of αvβ3 integrin (P05106 27-788): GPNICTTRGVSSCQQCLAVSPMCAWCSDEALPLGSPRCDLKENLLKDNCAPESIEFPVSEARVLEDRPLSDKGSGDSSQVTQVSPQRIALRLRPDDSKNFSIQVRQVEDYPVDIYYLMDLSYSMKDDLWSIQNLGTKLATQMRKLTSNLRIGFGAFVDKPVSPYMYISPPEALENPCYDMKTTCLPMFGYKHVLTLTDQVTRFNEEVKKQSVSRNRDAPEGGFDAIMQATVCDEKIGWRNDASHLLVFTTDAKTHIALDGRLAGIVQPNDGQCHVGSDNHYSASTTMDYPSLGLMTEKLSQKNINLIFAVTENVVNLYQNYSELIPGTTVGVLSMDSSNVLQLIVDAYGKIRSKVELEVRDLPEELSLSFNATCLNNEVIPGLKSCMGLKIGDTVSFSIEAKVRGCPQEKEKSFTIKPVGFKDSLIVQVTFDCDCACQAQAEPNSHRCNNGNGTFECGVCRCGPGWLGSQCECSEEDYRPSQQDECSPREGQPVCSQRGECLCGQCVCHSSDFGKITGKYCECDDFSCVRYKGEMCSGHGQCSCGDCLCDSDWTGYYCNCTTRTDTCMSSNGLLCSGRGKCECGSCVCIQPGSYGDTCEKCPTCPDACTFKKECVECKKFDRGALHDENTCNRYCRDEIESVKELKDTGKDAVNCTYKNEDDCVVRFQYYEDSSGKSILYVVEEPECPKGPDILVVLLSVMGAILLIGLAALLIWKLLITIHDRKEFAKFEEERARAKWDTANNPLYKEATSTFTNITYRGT

Broadly, the IC50 is the point on the concentration scale where inhibition reaches its midpoint. Take `[N-]=[N+]=NCCOCCOCCOCCOCCC(=O)NCCCOc1ccc([C@H](CC(=O)O)N2CCN(CCCc3ccc4c(n3)NCCC4)C2=O)cn1` [Structure 1c, (S)-3-(6-((1-azido-15-oxo-3,6,9,12-tetraoxa-16-azanonadecan-19-yl)oxy)pyridin-3-yl)-3-(2-oxo-3-(3-(5,6,7,8-tetrahydro-1,8-naphthyridin-2-yl)propyl)imidazolidin-1-yl)propanoic acid]: the values for the IC50 in assay [1], in assay [2] and in assay [3] were 0.6 nM, 0.3 nM and 5.3 nM, respectively.
For the compound `[N-]=[N+]=NCCOCCOCCOCCOc1ccc([C@H](CC(=O)O)N2CCN(CCCc3ccc4c(n3)NCCC4)C2=O)cc1F` [Structure 2c, (S)-3-(4-(2-(2-(2-(2-azidoethoxy)ethoxy)ethoxy)ethoxy)-3-fluorophenyl)-3-(2-oxo-3-(3-(5,6,7,8-tetrahydro-1,8-naphthyridin-2-yl)propyl)imidazolidin-1-yl)propanoic acid], the results for the IC50 in assay [1], in assay [2] and in assay [3] were 5.6 nM, 0.3 nM and 8.9 nM, respectively.
